{
  "source": "patent US9447408B2",
  "about": "“Method of efficiently establishing induced pluripotent stem cells” (Kyoto University, priority 2010, dated 2016)",
  "key": {"[1]": {"tested_on": "Mouse embryonic fibroblasts (MEFs)", "experiment": "iPS cell establishment from Nanog-GFP reporter MEFs, 4 genes (Oct3/4, Sox2, Klf4, c-Myc) introduced, with p38 inhibitors", "assay_type": "cell-based", "procedure": "Mouse embryonic fibroblasts (MEFs) from a Nanog reporter mouse carrying Nanog-GFP—IRES-Puro^r [Okita K. et al, Nature 448, 313-317 (2007)] were transfected with four genes using a retrovirus to induce iPS cells.\nEach retrovirus for reprogramming was prepared by transferring each of retroviral expression vectors (pMXs-Oct3/4, pMXs-Sox2, pMXs-Klf4, pMXs-cMyc:Cell, 126, 663-676 (2006)) to Plat-E cells (Morita, S. et al., Gene Ther. 7, 1063-1066) that had been seeded to a 6-well culture plate (Falcon) at 0.6×10^6 cells per well on the day before. The cells were cultured at 37° C. in the presence of 5% CO2 using DMEM/10% FCS [a culture broth prepared by adding 10% fetal calf serum to DMEM (Nacalai Tesque)]. To facilitate vector transfer, 4.5 μL of FuGene6 transfection reagent (Roche) was placed in 100 μL of Opti-MEM I Reduced-Serum Medium (Invitrogen), and the medium was allowed to stand at room temperature for 5 minutes. Subsequently, 1.5 μg of each expression vector was added, and the medium was allowed to further stand at room temperature for 15 minutes, after which they were added to the Plat-E culture broth. On day 2, the Plat-E supernatant was replaced with a fresh supply of the medium. On day 3, the culture supernatant was recovered and filtered through a 0.45 μm sterile filter (Whatman), and polybrene (Nacalai) was added at 4 μg/mL to yield a viral liquid.\nMouse embryonic fibroblasts (MEFs) were isolated from a fetal Nanog reporter mouse (13.5 days after fertilization). […] Not expressing the puromycin resistance gene as well, MEFs are susceptible to the antibiotic puromycin. As such, MEFs were seeded to a 6-well culture plate (Falcon), previously coated with 0.1% gelatin (Sigma), at 1.0×10^5 cells per well. DMEM/10% FCS served as the culture broth at 37° C. in the presence of 5% CO2. The following day, each retrovirus liquid was added, and this was followed by overnight infection to introduce the genes.\nOn day 1 after the viral infection, the medium for the MEFs was removed, and the cells were washed by the addition of 1 mL of PBS. After removing the PBS, 0.25% Trypsin/1 mM EDTA (Invitrogen) was added, and a reaction was carried out at 37° C. for about 5 minutes. After the cells floated up, the cells were suspended by the addition of an ES cell culture medium and 2500 cells were seeded to a 100 mm dish having mitomycin C-treated STO feeder cells seeded thereto previously. Cultivation was continued while replacing the ES cell culture medium with a fresh supply of the same medium every two days until a visible colony emerged.\nTo determine the effects of p38 inhibitors on the establishment of iPS cells by the introduction of the four mouse genes, cultivation was continued with the addition of 10 μM of the p38 inhibitor 5B202190, SB239063, or SB203580 (Calbiochem Company) to the medium per the schedule shown below. All these inhibitors were used in solution in DMSO. • 1. Oct3/4, Sox2, Klf4, c-Myc, each derived from mouse, saline • 2. Oct3/4, Sox2, Klf4, c-Myc, each derived from mouse, DMSO • 3. Oct3/4, Sox2, Klf4, c-Myc, each derived from mouse, SB202190 10 μM Day 1-4) • 4. Oct3/4, Sox2, Klf4, c-Myc, each derived from mouse, SB202190 10 μM (Day 1-8) • 5. Oct3/4, Sox2, Klf4, c-Myc, each derived from mouse, SB202190 10 μM (Day 9-16) • 6. Oct3/4, Sox2, Klf4, c-Myc, each derived from mouse, SB202190 10 μM (Day 1-16) • 7. Oct3/4, Sox2, Klf4, c-Myc, each derived from mouse, SB239063 10 μM (Day 1-4) • 8. Oct3/4, Sox2, Klf4, c-Myc, each derived from mouse, SB239063 10 μM (Day 1-8) • 9. Oct3/4, Sox2, Klf4, c-Myc, each derived from mouse, SB239063 10 μM (Day 9-16) • 10. Oct3/4, Sox2, Klf4, c-Myc, each derived from mouse, SB239063 10 μM (Day 1-16) • 11. Oct3/4, Sox2, Klf4, c-Myc, each derived from mouse, SB203580 10 μM (Day 1-4) • 12. Oct3/4, Sox2, Klf4, c-Myc, each derived from mouse, SB203580 10 μM (Day 1-8) • 13. Oct3/4, Sox2, Klf4, c-Myc, each derived from mouse, SB203580 10 μM (Day 9-16) • 14. […]"}, "[2]": {"tested_on": "Mouse embryonic fibroblasts (MEFs)", "experiment": "iPS cell establishment from MEFs, 3 genes (Oct3/4, Sox2, Klf4) introduced, with p38 inhibitors", "assay_type": "cell-based", "settings": "10 μM inhibitor added in the initial stage after the infection", "procedure": "Three genes were introduced using a retrovirus by the same experimental procedures as the above. The cells were cultured at a cell density of 2×10^4 cells/10 cm dish, with the addition of 10 μM of SB202190, SB239063, or SB203580 (Calbiochem Company) to the medium per the schedule shown below, and the establishment efficiency was compared. • 1. Oct3/4, Sox2, Klf4, each derived from mouse, saline • 2. Oct3/4, Sox2, Klf4, each derived from mouse, DMSO • 3. Oct3/4, Sox2, Klf4, each derived from mouse, SB202190 10 μM (Day 1-4) • 4. Oct3/4, Sox2, Klf4, each derived from mouse, SB202190 10 μM (Day 1-8) • 5. Oct3/4, Sox2, Klf4, each derived from mouse, SB202190 10 μM (Day 9-16) • 6. Oct3/4, Sox2, Klf4, each derived from mouse, SB202190 10 μM (Day 1-16) • 7. Oct3/4, Sox2, Klf4, each derived from mouse, SB239063 10 μM (Day 1-4) • 8. Oct3/4, Sox2, Klf4, each derived from mouse, SB239063 10 μM (Day 1-8) • 9. Oct3/4, Sox2, Klf4, each derived from mouse, SB239063 10 μM (Day 9-16) • 10. Oct3/4, Sox2, Klf4, each derived from mouse, SB239063 10 μM (Day 1-16) • 11. Oct3/4, Sox2, Klf4, each derived from mouse, SB203580 10 μM (Day 1-4) • 12. Oct3/4, Sox2, Klf4, each derived from mouse, SB203580 10 μM (Day 1-8) • 13. Oct3/4, Sox2, Klf4, each derived from mouse, SB203580 10 μM (Day 9-16) • 14. Oct3/4, Sox2, Klf4, each derived from mouse, SB203580 10 μM (Day 1-16),"}},
  "data": [
    {"smiles": "C[S+]([O-])c1ccc(-c2nc(-c3ccc(F)cc3)c(-c3ccncc3)[nH]2)cc1", "note": "(stereo not drawn) [SB203580, 4-(4-fluorophenyl)-2-(4-methylsulfinylphenyl)-5-(4-pyridyl)-1H-imidazole]", "values": [
      {"measurement": "effect on colony count when measured on day 28 after the infection", "setting": "[1]; 10 μM inhibitor on days 1 to 4, counted day 28", "value": "remarkable"},
      {"measurement": "colony count compared with cells treated with physiological saline or DMSO", "setting": "[1]; 10 μM inhibitor on days 1 to 4 after the infection, FIG. 1", "value": "tended to increase"},
      {"measurement": "number of positive cells compared with DMSO treatment", "setting": "[2]", "value": "increased"}
    ]}
  ]
}
